A short description of data set [1]: solubility in aqueous medium. The format is physicochemical. The settings on record: compared to naltrexone itself. From the text: Since only compounds containing a carbonyl moiety can react with the bisulfite anion nalmefene cannot undergo to such reaction. The bisulfite adduct of naltrexone is more soluble than naltrexone itself thus permitting the removal of this impurity.

The conditions of data set [2]: crystalline form; improves API stability under storage and formulation conditions; cited from earlier work.
For data set [3] the following is noted: compared to naltrexone; cited from earlier work.
For data set [4] the following is noted: compared to naltrexone; cited from earlier work. This is another data set of the same source.
The conditions of data set [5]: hydrochloride salt, doses of 10 to 40 mg taken when the patient experiences a craving for alcohol; cited from earlier work.
For data set [6] the following is noted: compared to naltrexone; cited from earlier work. The source holds these as a separate data set.

We go through three compounds from patent publication US8841452B1, “Process for recovery of nalmefene hydrochloride” (H. Lundbeck A/S, priority 2011, dated 2014).

Where a name gives a salt, the structure may show the parent alone.

On to `O=S(=O)(O)C1(O)CC[C@@]2(O)[C@H]3Cc4ccc(O)c5c4[C@@]2(CCN3CC2CC2)[C@H]1O5` (stereo partly drawn) [bisulfite adduct of naltrexone], for which the solubility result in data set [1] is reported as “more soluble”.

`C=C1CC[C@@]2(O)[C@H]3Cc4ccc(O)c5c4[C@@]2(CCN3CC2CC2)[C@H]1O5` [nalmefene hydrochloride dihydrate]: the hygroscopic properties entry in data set [2] is recorded as “non-hygroscopic”.

With `C=C1CC[C@@]2(O)[C@H]3Cc4ccc(O)c5c4[C@@]2(CCN3CC2CC2)[C@H]1O5` [nalmefene, 17-(cyclopropylmethyl)-4,5-alpha-epoxy-6-methylenemorphinan-3,14-diol hydrochloride], the half-life entry in data set [3] is “longer”. For the same compound, the dose-dependent liver toxicity result in data set [4] was “absence”. For the same compound, the “effect in the management of alcohol dependency” value in data set [5] was “good effect”. Further, in data set [6], the oral bioavailability entry is “higher”.
